This note sets out measurements from patent US20160220557A1, “USE OF ACETYL-COA CARBOXYLASE INHIBITORS FOR TREATING ACNE VULGARIS” (PFIZER INC., priority 2013, published 2016).

pIC50: −log10 of the molar value.

Experiment [1] concerns de novo lipogenesis in ear skin and liver. In words: Effect of oral and topical ACCi on DNL (14C-acetate incorporation) in Syrian hamsters. Format: in vivo, Syrian hamster. The following applies: oral 100 mg/kg single dose, vs. vehicle. As for the experimental part: Male Syrian gold Hamster at ˜10 weeks were maintained adlibitum on standard hamster chow and water. […] Example 3 for topical delivery was prepared as a solution in a vehicle consisting of 70:30 (Ethanol:propylene glycol) at a concentration of 100 mg/ml. Topical administration of a single dose (5 ul/ear) was applied to hamster ears with a pipette (2-10 ul) tip adhering to 2 minute intervals following the dosing order. The dosing timing allowed for the formulation to spread evenly over an approximate 1 sq cm area and absorb/dry prior to returning the animal to the cage. 1 hour post ACCi dose each animal received an IP injection of ^14C-labeled acetate (ARC0158B diluted in saline) following the 2 minute interval timing format. Each animal received an individually calculated amount of ^14C-acetate based on body weight (0.1 μCi/g in a dosing volume of 2 μl/g). One hour after the ^14C-Acetate injection animals were sacrificed by CO2 asphyxiation.
Liver and ear skin were collected for de novo lipogenesis determinations (^14C incorporation to lipid). Briefly, 2 liver punches totaling ˜400 mg of liver were collected from the bifurcated median lobe of each animal (using a 8 mm diameter Sklar Tru-punch—Sklar Instruments), rinsed with saline and blotted dry. The tissues were placed into pre-weighed in glass tubes (Pyrex 9826-16×125 mm with PTFE lined caps) containing NaOH (1.5 mL of 2.5 M).
Ear skin samples were prepared for analysis in the following manner. One 8 mm distal biopsy punch (using an 8 mm diameter Sklar Tru-punch—Sklar Instruments) (2 per animal) was taken just above the anatomical “V” in the aural cartilage to standardize sample collection area. The punch was then split into 2 layers (anterior and posterior). The anterior (front) surface is retained for analysis. The anterior skin was placed into pre-weighed in glass tubes (Pyrex 9826-16×125 mm with PTFE lined caps) containing NaOH (1.5 mL of 2.5 M).
Upon completion of the study, the liver and ear skin samples in NaOH were weighed and this weight was used to calculate the mass of the tissue collected. The capped tubes were heated in an dry oven (˜60° C.) until the tissue was fully degraded (˜4-6 hr, gentle vortexing 2-3 times during heating). Following degradation and cooling absolute ethanol (2.5 mL) was added to each sample. The tubes were recapped and vigorously mixed (vortexed) for 60 seconds and allowed to settle overnight at RT. Petroleum ether (4.8 mL) was added to each tube, recapped and the samples were vigorous mixed (60 sec). […] Aquasol-2 scintillation fluid (10 mL) (or other compatible scintillation fluid) was added to each vial and after vortexing the samples were counted in an appropriate scintillation counter (e g. Wallac Rack-Beta 1409 LSC). […]

For experiment [2], the system named is SZ95 human sebocyte cells. Put plainly: Inhibition of de novo lipogenesis (14C-acetate incorporation) in cultured human sebocytes. Format: cell-based. The conditions noted are these: Homo sapiens, SZ95 sebocytes, 14C-acetate incorporation into lipids relative to vehicle; read-out: C9302E Sebocyte IC50. Here is the method:
SZ95 sebocytes were grown in Human Sebocyte Growth Medium (HSGM) (Sebomed® medium (Biochrom: F8205) supplemented with 10% heat-inactivated fetal bovine serum, 1% penicillin/streptomycin, 1 mM calcium chloride and 5 ng/mL recombinant human epidermal growth factor (Life Tech: PHG0311)). At 90% confluence, cells were washed three times with PBS and then detached with 0.05% Trypsin-EDTA. Cells were centrifuged and resuspended in HSGM containing 10% charcoal-stripped serum (Life Tech: 12676-029). Cells were then plated in 24-well plates at a density of 0.25×10^6 cells/well and were incubated overnight to enable cell adherence to the culture plate.
Cells were treated with a dose response of compound, and each dose was assayed in triplicate. Briefly, compounds were dissolved in DMSO stocks and diluted 1:1000 into charcoal-stripped media. 0.1% DMSO without compound was used as the vehicle control. After a 1 hour preincubation with compound or vehicle, 0.25 μCi ^14C-acetic acid (American Radiolabeled Chemicals: ARC0158B) was added to each well. Plates were then incubated for an additional two hours. At the end of the incubation period, cells were removed from incubator, placed on ice, and then washed twice with ice-cold PBS to remove free ^14C-acetic acid. Plates were sealed and stored at −20° C. until analysis.
Plates were shaken for 1 hour at room temperature to induce lysis. Lysates were transferred to individual 1.5 mL polypropylene tubes, and wells were washed with 175 μl of PBS, which was added to lysates. 450 μl of a 1:1 (v/v) chloroform:methanol solution was then added to each tube, and then all tubes were vortexed for 10 seconds and centrifuged at 20,000×g for 5 minutes at room temperature to separate aqueous from organic phase. A 25 μl aliquot was removed from the bottom organic layer of each sample and added to 6 mL OptiPhase supermix (PerkinElmer: 1200-439) scintillation fluid. Counts of ^14C incorporated into lipids were assessed by scintillation counting. DNL (counts of ^14C incorporated into lipids) was expressed for compound treated cells relative to DNL in the vehicle control treated cells for determination of EC50 values. For a subset of the compounds tested, a second aliquot (3×35 μl) of the organic layer of each sample was removed and applied to a TLC lane (Analtech Silica Gel G Plates). Radiolabeled lipids were resolved using a 2-solvent system. Solvent 1 contained a 100:100:100:40:36 mixture of ethyl acetate:isopropyl alcohol:CHCl3:MeOH:0.25% KCl and solvent 2 a 70:27:3 hexane:diethyl ether:acetic acid mix. The TLC plate was dried under nitrogen for 30 minutes and [^14C]-calibrators added to a vacant lane. Bands were visualized and quantitated using a Molecular Dynamics' Storm 860 Phosphorimager system following 18-36 hours exposure to a Phosphorimager screen.

For experiment [3], the system named is ear skin triglyceride levels. In words: Hamster ear triglyceride content after chronic treatment. Format: in vivo, Syrian hamster. The conditions noted are these: oral 30 mg/kg once daily for 19 days. Here is the method: Male Syrian gold hamsters weighing between 150-200 g (22-23 weeks) were maintained adlibitum on standard hamster chow and on a 12 hour light and dark cycle. […] At the end of the study period, animals were euthanized by CO2 asphyxiation. Hamster pinia (ear) were removed by punch biopsy (using an 8 mm diameter Sklar Tru-punch—Sklar Instruments). Punch biopsies were taken just above the anatomical “V” in the aural cartilage of each ear to standardize sample collection area. The punch was then split into 2 layers (anterior and posterior). The anterior (front) surface was retained for analysis. For liver samples the bifurcated medial lobe was removed, rinsed in saline and drained of blood by placing the cut end of the lobe on a sterile absorbent paper and using capillary action. The liver lobe was then flash frozen in liquid nitrogen. Two Qiagen 3 mm Tungsten beads were added to tubes containing individual anterior biopsies of hamster ear skin along with 500 ul of homogenization buffer (methanol:water 1:1 v/v). […] Ear skin triglyceride content was determined via LC-MS on the AB SCIEX Qtrap 5500. […] Lipid extracts were then analyzed by UPLC-MS/MS using a Waters Acquity UPLC coupled to an AB Sciex QTRAP 5500 mass spectrometer. […] Lipid species were then analyzed on the mass spectrometer using positive ion electrospray ionization in the multiple reaction monitoring (MRM) mode. […]

For `CC(C)(C)n1cc2c(n1)C(=O)CC1(CCN(C(=O)c3ccc4[nH]ncc4c3)CC1)O2` [Example 8, 2′-(tert-butyl)-1-(1H-indazole-5-carbonyl)-2′H-spiro[piperidine-4,5′-pyrano[3,2-c]pyrazol]-7′(6′H)-one], in experiment [1], the “suppression of incorporation of de novo synthesized fatty acids in liver” value turned out to be 85% and the “suppression of incorporation of de novo synthesized fatty acids in skin” value came to 84%. In addition, the pIC50 (usually the negative decadic logarithm of the IC50, by convention in mol/L) in experiment [2] was 6.26. Further, the “ear skin triglyceride levels vs. vehicle” value in experiment [3] was “No changes”.
